Test [1] concerns the target T1, recombinant HTRA2 protein (Homo sapiens, UniProt O43464).
T1 construct: 6xHis (C); purchased Novoprotein Scientific INC., Summit, NJ, USA
T1 sequence (O43464 134-458): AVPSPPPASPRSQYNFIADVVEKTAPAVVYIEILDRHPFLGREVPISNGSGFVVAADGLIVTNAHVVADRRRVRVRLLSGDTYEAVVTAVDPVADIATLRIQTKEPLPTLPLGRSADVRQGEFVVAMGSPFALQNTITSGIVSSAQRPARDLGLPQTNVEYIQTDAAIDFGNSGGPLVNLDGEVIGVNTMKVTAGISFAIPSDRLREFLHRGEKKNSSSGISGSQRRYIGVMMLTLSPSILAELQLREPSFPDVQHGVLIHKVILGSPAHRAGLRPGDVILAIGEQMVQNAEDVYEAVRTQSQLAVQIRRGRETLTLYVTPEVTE
Briefly: HTRA2 protease activity assay with fluorescent H2-optimal substrate. The test is classed as biochemical. The settings on record: for Increase of the average degradation rate of the optimal substrate H2 with respect to the untreated positive control: 100 nM HTRA2, 10 µM substrate, RT; for Average degradation rate of the optimal substrate H2 by HTRA2 (enzymatic reaction rate per minute): 100 nM recombinant HTRA2, 10 µM H2-optimal substrate, pH 8.0, RT, fluorescence ex 320 nm / em 405 nm, untreated positive control 229 U/min; for Inhibitory effect on HTRA2 after targeted alanine substitution in the CDR binding motif (mutational analysis): protease activity assay, Figure S1. The method, then:
The HTRA2 protease activity assay was performed as described by Martins et al. (2003), but with some slight modifications. The experiment was performed with 100 nM recombinant HTRA2 protein (Novoprotein Scientific INC., Summit, NJ, USA) in a protease assay buffer (50 mM tris(hydroxymethyl)-aminomethane (TRIS), 0.5 mM ethylenediaminetetraacetic acid (EDTA), and 1 mM dithiothreitol (DTT), pH 8.0) containing 10 µM H2-optimal substrate (Innovagen AB, Lund, Sweden). The H2-optimal substrate is commonly used to measure the protease activity of HTRA2 and consists of a structural quencher and a fluorophore unit. The cleavage of the substrate leads to the disruption of the quencher/fluorophore complex and the degradation rate can be measured by fluorescence. The different sample groups were treated with 50 µM PDZ-Opt, 50 µM PDZ-Sub, 50 µM synthetic CDR1 peptide, or 30 µM UCF-101, respectively. The drug compound UCF-101 is an inhibitor of the catalytic domain of HTRA2 and was purchased from Sigma Aldrich (Darmstadt, Germany). The concentrations of the peptide ligands for the HTRA2 protease activity assay were chosen from the previous publication. The concentration of UCF-101 was determined to be optimal from the preliminary experiments. In addition, a positive control containing only 100 nM recombinant HTRA2 and a negative control (only protease assay buffer) were included in this experiment. All of the sample groups were incubated for 1 h at 37 °C to determine the maximum degradation rate of HTRA2. For the analysis of the enzymatic reaction rate of HTRA2, all samples were measured subsequently after the addition of the 10 µM H2-optimal substrate at RT. Fluorescence was monitored on a Spark® 10 M multimode microplate-reader (Tecan Trading AG, Männedorf, Switzerland) with an excitation at 320 nm and a fluorescence emission at 405 nm. The fluorescence background of the substrate was substracted from the fluorescence intensities of the different the sample groups to normalize the data.
To determine the proteolytic activity of HTRA2 we used the fluorescent H2 optimal substrate developed by Martins et al. (2003). The optimal substrate H2 encoded a short specific amino acid sequence, which is preferentially cleaved by HTRA2, and was also modified with a fluorescent dye and quencher. […] Under physiological conditions, the proteolytic activity of HTRA2 is suppressed by the C-terminal PDZ domain, which blocks the access of potential substrates to the catalytic domain by steric hindrance. The binding of short hydrophobic polypeptides to the allosteric PDZ domain can induce specific conformational changes of HTRA2 and are able to regulate its proteolytic activity. Therefore, Martins et al. (2003) specifically designed the peptide ligands PDZ-Opt (GQYYFV) and PDZ-Sub (GGIRRV), which are known to increase the proteolytic activity of HTRA2 in this assay.

A further test has as its system HTRA2-PDZ domain. More on the design: method as in PMID 23457469. The settings on record: cited from earlier work.
For test [2], the target named is Serine protease HTRA2, mitochondrial (recombinant, 6xHis-tag) (UniProt O43464).

Consider “GGIRRV [PDZ-Sub, a peptide generated by HTRA2 auto-proteolysis, reference compound]”, for which, in test [1] (50 µM peptide), the “Increase of the average degradation rate of the optimal substrate H2 with respect to the untreated positive control” value was “up to 18%” and the “Average degradation rate of the optimal substrate H2 by HTRA2 (enzymatic reaction rate per minute)” value came out at 272 U/min.

In the case of GQYYFV [PDZ-Opt, reference compound], in test [1] (50 µM peptide), the “Increase of the average degradation rate of the optimal substrate H2 with respect to the untreated positive control” value is on record as “up to 50%” and the “Average degradation rate of the optimal substrate H2 by HTRA2 (enzymatic reaction rate per minute)” value stood at 345 U/min.

Consider “ASGYTATNYGLSWVR [F(6), CDR peptide for the mutational analysis, alanine at position 6]”, for which the “Inhibitory effect on HTRA2 after targeted alanine substitution in the CDR binding motif (mutational analysis)” value (“Inhibitory effect on HTRA2” for short) in test [1] is “particular important presence of Y(4) and F(6) for the inhibitory effect on HTRA2”.

Regarding “ASGATFTNYGLSWVR [Y(4), CDR peptide for the mutational analysis, alanine at position 4]”, in test [1], the “Inhibitory effect on HTRA2” value was “particular important presence of Y(4) and F(6) for the inhibitory effect on HTRA2”.

For “YVWAGSTLSRTGNFY [scrambled CDR, scrambled CDR peptide analog]”, the “Maximum degradation rate of the H2 optimal substrate by HTRA2” value in test [1] (50 µM peptide, 1 h at 37 °C, n = 3, Figure 1C) is given as “unable to induce the suppression of the HTRA2 protease activity”.

Consider AGYTGFV, for which the “Glide score for binding to the HTRA2-PDZ domain” value with HTRA2-PDZ domain was -7.903 kcal/mol.

Consider “ASGYAFTNYGLSWVR [T(5) to A(5), CDR peptide for the mutational analysis, alanine at position 5]”, for which, in test [1], the “Inhibitory effect on HTRA2” value is “significantly strengthened the inhibitory effect”.

GQYYFV [PDZ-Opt]: the average degradation rate of the fluorescent H2 optimal substrate (10 µM) by 100 nM HTRA2 with 50 µM PDZ-Opt; untreated HTRA2 229 U/min (increase up to 50%) in test [2] was determined as 345 U/min.

With GGIRRV [PDZ-Sub], the average degradation rate of the fluorescent H2 optimal substrate (10 µM) by 100 nM HTRA2 with 50 µM PDZ-Sub; untreated HTRA2 229 U/min (increase up to 18%) in test [2] was found to be 272 U/min.
